Data reported in ChEMBL document CHEMBL1201862, “PubChem BioAssay data set” (2004).
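In this assay, cells in 96-well plates receive the compound at five concentrations for 48 hours. Endpoints are linearly interpolated between the surrounding concentrations. GI50 is the concentration that inhibits growth by half.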 Calls of active or inactive are those of the source. No stated cut-off is given here; in the data, active = GI50 up to about 1.1 µM and inactive = higher.

What was measured:
Test in all cases: DTP human tumour cell line panel, 48 h
HL-60 = test system: HL-60
OVCAR-5 = test system: OVCAR-5
SN12C = test system: SN12C
786-0 = test system: 786-0
EKVX = test system: EKVX
UACC-62 = test system: UACC-62
OVCAR-4 = test system: OVCAR-4
OVCAR-8 = test system: OVCAR-8
SK-MEL-28 = test system: SK-MEL-28
NCI-H522 = test system: NCI-H522
SK-MEL-2 = test system: SK-MEL-2
A549 = test system: A549
A498 = test system: A498
SNB-19 = test system: SNB-19
RXF 393 = test system: RXF 393
DLD-1 = test system: DLD-1
NCI-H460 = test system: NCI-H460
SF-268 = test system: SF-268
CCRF-CEM = test system: CCRF-CEM
HT-29 = test system: HT-29
SK-MEL-5 = test system: SK-MEL-5
DMS-273 = test system: DMS-273
K562 = test system: K562
SW-620 = test system: SW-620
HOP-62 = test system: HOP-62
HCT-116 = test system: HCT-116
IGROV-1 = test system: IGROV-1
CAKI-1 = test system: CAKI-1
HCC 2998 = test system: HCC 2998
NCI-H23 = test system: NCI-H23
SK-OV-3 = test system: SK-OV-3
MOLT-4 = test system: MOLT-4
SNB-75 = test system: SNB-75
M19-MEL = test system: M19-MEL
SF-295 = test system: SF-295
RPMI-8226 = test system: RPMI-8226
TK-10 = test system: TK-10
LOX IMVI = test system: LOX IMVI
UACC-257 = test system: UACC-257
HOP-92 = test system: HOP-92
Malme-3M = test system: Malme-3M
COLO 205 = test system: COLO 205
U-251 = test system: U-251
DMS-114 = test system: DMS-114
KM-20L2 = test system: KM-20L2
HCT-15 = test system: HCT-15
OVCAR-3 = test system: OVCAR-3
KM12 = test system: KM12
UO-31 = test system: UO-31
SNB-78 = test system: SNB-78
HOP-18 = test system: HOP-18
NCI-H226 = test system: NCI-H226
SF-539 = test system: SF-539
M14 = test system: M14
ACHN = test system: ACHN
MCF7 = test system: MCF7
XF498 = test system: XF498
SR = test system: SR
LXFL 529 = test system: LXFL 529

Measured: GI50

O=C1C2C3C=C4c5ccccc5N(c5ccccc5)C4(C2C(=O)N1c1ccc([N+](=O)[O-])cc1)[C@H]1C(=O)N(c2ccc([N+](=O)[O-])cc2)C(=O)[C@@H]31 (some centres not stated)
> 100 µM: HCT-15
inactive: HL-60 > 100 µM | OVCAR-5 > 100 µM | SN12C > 100 µM | 786-0 > 100 µM | EKVX > 100 µM | UACC-62 > 100 µM | OVCAR-4 > 100 µM | OVCAR-8 > 100 µM | SK-MEL-28 > 100 µM | NCI-H522 > 100 µM | SK-MEL-2 > 100 µM | A549 > 100 µM | A498 > 100 µM | SNB-19 > 100 µM | RXF 393 > 100 µM | DLD-1 > 100 µM | NCI-H460 > 100 µM | SF-268 > 100 µM | CCRF-CEM > 100 µM | HT-29 > 100 µM | SK-MEL-5 > 100 µM | DMS-273 > 100 µM | K562 > 100 µM | SW-620 > 100 µM | HOP-62 > 100 µM | HCT-116 > 100 µM | IGROV-1 > 100 µM | CAKI-1 > 100 µM | HCC 2998 > 100 µM | NCI-H23 > 100 µM | SK-OV-3 > 100 µM | MOLT-4 > 100 µM | SNB-75 11.1 µM | M19-MEL > 100 µM | SF-295 > 100 µM | RPMI-8226 > 100 µM | TK-10 > 100 µM | LOX IMVI > 100 µM | UACC-257 > 100 µM | HOP-92 > 100 µM | Malme-3M > 100 µM | COLO 205 > 100 µM | U-251 > 100 µM | DMS-114 > 100 µM | KM-20L2 > 100 µM | OVCAR-3 > 100 µM | KM12 > 100 µM | UO-31 > 100 µM | SNB-78 > 100 µM | HOP-18 > 100 µM | NCI-H226 > 100 µM | SF-539 > 100 µM | M14 > 100 µM | ACHN > 100 µM

CC1[C@@H]2CC=C3[C@H]4CCC5Cc6nc7c(nc6C[C@@]5(C)C4(O)CC(=O)[C@]32CO[C@]12OC(C)(C)CC2O)CC1CC[C@@H]2C3=C[C@H]4O[C@@]5(O[C@@](C)(CO)C[C@@H]5O)C(C)[C@@]4(O)[C@]3(C)[C@@H](O)CC2[C@]1(C)C7 (some centres not stated)
active: HL-60 < 0.0001 µM | MCF7 0.00194 µM | A498 0.000342 µM | RXF 393 < 0.0001 µM | DMS-273 < 0.0001 µM | HCC 2998 0.0748 µM | SNB-75 < 0.0001 µM | SF-295 < 0.0001 µM | RPMI-8226 < 0.0001 µM | TK-10 0.0204 µM | DMS-114 0.00011 µM | SF-539 < 0.0001 µM | XF498 < 0.0001 µM

c1ccc(C2OCCO2)c(OCCOc2cc(OCCOc3ccccc3C3OCCO3)c(OCCOc3ccccc3C3OCCO3)cc2OCCOc2ccccc2C2OCCO2)c1
inactive: HL-60 > 100 µM | OVCAR-5 > 100 µM | SN12C > 100 µM | 786-0 4.67 µM | UACC-62 9.86 µM | OVCAR-4 8.34 µM | OVCAR-8 13.9 µM | SK-MEL-28 > 100 µM | NCI-H522 2.42 µM | SK-MEL-2 16.5 µM | A549 24.4 µM | A498 15.8 µM | RXF 393 5.35 µM | DLD-1 > 100 µM | NCI-H460 24.3 µM | SF-268 15.3 µM | CCRF-CEM > 100 µM | SR > 100 µM | HT-29 > 100 µM | SK-MEL-5 26.1 µM | DMS-273 15.3 µM | K562 > 100 µM | SW-620 81.3 µM | HOP-62 13.3 µM | HCT-116 14.5 µM | IGROV-1 12.4 µM | CAKI-1 > 100 µM | NCI-H23 11.3 µM | SK-OV-3 2.76 µM | MOLT-4 > 100 µM | SNB-75 2.16 µM | M19-MEL > 100 µM | SF-295 17.9 µM | RPMI-8226 > 100 µM | TK-10 14.7 µM | LXFL 529 29.2 µM | LOX IMVI 49.4 µM | UACC-257 > 100 µM | HOP-92 5.28 µM | Malme-3M 43.1 µM | COLO 205 > 100 µM | U-251 10.3 µM | DMS-114 11.8 µM | KM-20L2 > 100 µM | OVCAR-3 17.8 µM | KM12 91.8 µM | UO-31 12.9 µM | SNB-78 5.46 µM | HOP-18 > 100 µM | NCI-H226 13 µM | SF-539 10.7 µM | M14 26.7 µM | ACHN 24.7 µM
> 100 µM: HCT-15
